Test [1] has as its target Human immunodeficiency virus type 1 integrase (Human immunodeficiency virus 1, UniProt Q7ZJM1, C280S/F185K). As to the kind of experiment: Inhibition of HIV1 3'-processing activity of integrase F185K/C280S double mutant expressed in Escherichia coli BL21 (DE3).
Test [2] deals with Human immunodeficiency virus type 1 integrase (Human immunodeficiency virus 1), Q7ZJM1 [F185K,C280S]. As to the kind of experiment: Inhibition of HIV1 integrase F185K/C280S double mutant dimerization expressed in Escherichia coli BL21 (DE3) at 100 fold excess compound concentration after 1 hr by PAGE analysis.
Test [3] has the same test system. Nature of the test: Inhibition of HIV1 integrase F185K/C280S double mutant dimerization expressed in Escherichia coli BL21 (DE3) at 110 uM after 1 hr by PAGE analysis.

The source made the active and inactive calls. No cut-off for these calls is given here. Starred links: 1 amine or outer side, 2 acyl side, 3 side chain; linkers in the order of their positions; H or OH if unused. Non-standard residues stand in square brackets, D forms with d. Residues, ends and D or L forms follow the SMILES beside them. X2 = O=C(C1CCCC(CN[*:1])C1)[*:2]; X1 = O=C(CN1CCN([*:1])CC1)[*:2]; X3 = O=C(CC1CCN([*:1])CC1)[*:2]; X4 = O=C(CCC(=O)[*:2])CN[*:1]; Ahx = NCCCCCC(=O)O

As to `CC[C@H](C)[C@H](NC(=O)[C@H](CC(=O)O)NC(=O)[C@@H](NC(=O)[C@H](C)NC(=O)[C@@H](NC(=O)[C@@H](NC(=O)[C@H](CC(=O)O)NC(=O)[C@@H](NC(=O)[C@@H](NC(=O)[C@H](CCCNC(=N)N)NC(=O)[C@H](CCC(=O)O)NC(=O)CNC(=O)[C@H](C)NC(=O)CCCCCNC(=O)[C@H](CCCNC(=N)N)NC(=O)[C@H](CCCCN)NC(=O)[C@H](Cc1ccccc1)NC(=O)[C@H](CC(N)=O)NC(=O)[C@H](Cc1cnc[nH]1)NC(=O)[C@@H](NC(=O)[C@H](Cc1ccccc1)NC(=O)[C@@H](NC(=O)[C@H](C)NC(=O)[C@H](CCSC)NC(=O)[C@H](CCC(N)=O)NC(=O)[C@@H](NC(=O)[C@H](C)NC(=O)[C@@H](NC(=O)[C@H](CCCCN)NC(=O)[C@H](CC(C)C)NC(=O)[C@@H](N)Cc1cnc[nH]1)[C@@H](C)O)C(C)C)C(C)C)[C@@H](C)CC)[C@@H](C)CC)C(C)C)[C@@H](C)CC)[C@@H](C)CC)[C@@H](C)O)C(=O)N[C@@H](CCC(N)=O)C(N)=O` (H-HLKTAVQMAVFIHNFKR[Ahx]AGERIVDIIATDIQ-NH2), in test [1], the IC50 (usually the concentration at which inhibition is half-maximal) was found to be 1500 nM. Besides, the inhibition entry in test [2] and in test [3] was “inactive” each time.

`CC[C@H](C)[C@H](NC(=O)[C@H](CC(=O)O)NC(=O)[C@@H](NC(=O)[C@H](C)NC(=O)[C@@H](NC(=O)[C@@H](NC(=O)[C@H](CC(=O)O)NC(=O)[C@@H](NC(=O)[C@@H](NC(=O)[C@H](CCCNC(=N)N)NC(=O)[C@H](CCC(=O)O)NC(=O)CNC(=O)[C@H](C)NC(=O)CN1CCN(C(=O)[C@H](CCCNC(=N)N)NC(=O)[C@H](CCCCN)NC(=O)[C@H](Cc2ccccc2)NC(=O)[C@H](CC(N)=O)NC(=O)[C@H](Cc2cnc[nH]2)NC(=O)[C@@H](NC(=O)[C@H](Cc2ccccc2)NC(=O)[C@@H](NC(=O)[C@H](C)NC(=O)[C@H](CCSC)NC(=O)[C@H](CCC(N)=O)NC(=O)[C@@H](NC(=O)[C@H](C)NC(=O)[C@@H](NC(=O)[C@H](CCCCN)NC(=O)[C@H](CC(C)C)NC(=O)[C@@H](N)Cc2cnc[nH]2)[C@@H](C)O)C(C)C)C(C)C)[C@@H](C)CC)CC1)[C@@H](C)CC)C(C)C)[C@@H](C)CC)[C@@H](C)CC)[C@@H](C)O)C(=O)N[C@@H](CCC(N)=O)C(N)=O` (H-HLKTAVQMAVFIHNFKR[X1]AGERIVDIIATDIQ-NH2) gave an IC50 in test [1] of 460 nM. Further, the inhibition entry in test [3] was “Active”.

In test [1], `CC[C@H](C)[C@H](NC(=O)[C@H](CC(=O)O)NC(=O)[C@@H](NC(=O)[C@H](C)NC(=O)[C@@H](NC(=O)[C@@H](NC(=O)[C@H](CC(=O)O)NC(=O)[C@@H](NC(=O)[C@@H](NC(=O)[C@H](CCCNC(=N)N)NC(=O)[C@H](CCC(=O)O)NC(=O)CNC(=O)[C@H](C)NC(=O)C1CCCC(CNC(=O)[C@H](CCCNC(=N)N)NC(=O)[C@H](CCCCN)NC(=O)[C@H](Cc2ccccc2)NC(=O)[C@H](CC(N)=O)NC(=O)[C@H](Cc2cnc[nH]2)NC(=O)[C@@H](NC(=O)[C@H](Cc2ccccc2)NC(=O)[C@@H](NC(=O)[C@H](C)NC(=O)[C@H](CCSC)NC(=O)[C@H](CCC(N)=O)NC(=O)[C@@H](NC(=O)[C@H](C)NC(=O)[C@@H](NC(=O)[C@H](CCCCN)NC(=O)[C@H](CC(C)C)NC(=O)[C@@H](N)Cc2cnc[nH]2)[C@@H](C)O)C(C)C)C(C)C)[C@@H](C)CC)C1)[C@@H](C)CC)C(C)C)[C@@H](C)CC)[C@@H](C)CC)[C@@H](C)O)C(=O)N[C@@H](CCC(N)=O)C(N)=O` (stereo partly drawn) (H-HLKTAVQMAVFIHNFKR[X2]AGERIVDIIATDIQ-NH2) came in with an IC50 of 1000 nM. In addition, the inhibition entry in test [3] was “Active”.

Regarding `CC[C@H](C)[C@H](NC(=O)[C@H](CC(=O)O)NC(=O)[C@@H](NC(=O)[C@H](C)NC(=O)[C@@H](NC(=O)[C@@H](NC(=O)[C@H](CC(=O)O)NC(=O)[C@@H](NC(=O)[C@@H](NC(=O)[C@H](CCCNC(=N)N)NC(=O)[C@H](CCC(=O)O)NC(=O)CNC(=O)[C@H](C)NC(=O)CC1CCN(C(=O)[C@H](CCCNC(=N)N)NC(=O)[C@H](CCCCN)NC(=O)[C@H](Cc2ccccc2)NC(=O)[C@H](CC(N)=O)NC(=O)[C@H](Cc2cnc[nH]2)NC(=O)[C@@H](NC(=O)[C@H](Cc2ccccc2)NC(=O)[C@@H](NC(=O)[C@H](C)NC(=O)[C@H](CCSC)NC(=O)[C@H](CCC(N)=O)NC(=O)[C@@H](NC(=O)[C@H](C)NC(=O)[C@@H](NC(=O)[C@H](CCCCN)NC(=O)[C@H](CC(C)C)NC(=O)[C@@H](N)Cc2cnc[nH]2)[C@@H](C)O)C(C)C)C(C)C)[C@@H](C)CC)CC1)[C@@H](C)CC)C(C)C)[C@@H](C)CC)[C@@H](C)CC)[C@@H](C)O)C(=O)N[C@@H](CCC(N)=O)C(N)=O` (H-HLKTAVQMAVFIHNFKR[X3]AGERIVDIIATDIQ-NH2), the midpoint of inhibition in test [1], the IC50, lay at 570 nM. The inhibition result in test [3] was “Active”.

In the case of `CC[C@H](C)[C@H](NC(=O)[C@H](CC(=O)O)NC(=O)[C@@H](NC(=O)[C@H](C)NC(=O)[C@@H](NC(=O)[C@@H](NC(=O)[C@H](CC(=O)O)NC(=O)[C@@H](NC(=O)[C@@H](NC(=O)[C@H](CCCNC(=N)N)NC(=O)[C@H](CCC(=O)O)NC(=O)CNC(=O)[C@H](C)NC(=O)CCC(=O)CNC(=O)[C@H](CCCNC(=N)N)NC(=O)[C@H](CCCCN)NC(=O)[C@H](Cc1ccccc1)NC(=O)[C@H](CC(N)=O)NC(=O)[C@H](Cc1cnc[nH]1)NC(=O)[C@@H](NC(=O)[C@H](Cc1ccccc1)NC(=O)[C@@H](NC(=O)[C@H](C)NC(=O)[C@H](CCSC)NC(=O)[C@H](CCC(N)=O)NC(=O)[C@@H](NC(=O)[C@H](C)NC(=O)[C@@H](NC(=O)[C@H](CCCCN)NC(=O)[C@H](CC(C)C)NC(=O)[C@@H](N)Cc1cnc[nH]1)[C@@H](C)O)C(C)C)C(C)C)[C@@H](C)CC)[C@@H](C)CC)C(C)C)[C@@H](C)CC)[C@@H](C)CC)[C@@H](C)O)C(=O)N[C@@H](CCC(N)=O)C(N)=O` (H-HLKTAVQMAVFIHNFKR[X4]AGERIVDIIATDIQ-NH2), the IC50 in test [1] worked out at 430 nM. The inhibition entry in test [3] is “Active”.

With “H-HLKTAVQMAVFIHNFKRKGGIGGYSAGERIVDIIATDIQ-NH2”, in test [1], the midpoint of inhibition, the IC50, lay at 1700 nM. Also, in test [3], the inhibition result is “Active”.

The record behind these values is ChEMBL document CHEMBL2396590, “Inhibition of HIV-1 integrase dimerization and activity with crosslinked interfacial peptides” (Bioorg Med Chem, 2013).
